{
  "source": "ChEMBL document CHEMBL5465560",
  "about": "“Selectivity Literature for EUbOPEN Chemogenomic Library” (2024)",
  "key": {"[1]": {"target": "T1, Testis-specific serine/threonine-protein kinase 3 (Homo sapiens) (UniProt Q96PN8)", "T1 sequence (whole entry)": "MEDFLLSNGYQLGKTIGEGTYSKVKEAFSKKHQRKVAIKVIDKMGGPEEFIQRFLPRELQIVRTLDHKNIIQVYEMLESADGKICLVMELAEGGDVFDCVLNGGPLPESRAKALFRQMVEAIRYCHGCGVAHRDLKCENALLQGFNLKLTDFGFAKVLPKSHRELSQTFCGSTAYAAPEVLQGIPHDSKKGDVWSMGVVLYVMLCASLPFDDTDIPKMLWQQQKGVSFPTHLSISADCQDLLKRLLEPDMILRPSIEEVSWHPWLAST", "experiment": "Selectivity interaction (KinomeScan (DiscoverX)) EUB0000229b TSSK3", "settings": "at 10 µM"}, "[2]": {"target": "Tyrosine-protein kinase Yes (Homo sapiens) (UniProt P07947)", "sequence (P07947 2-543 limits assumed)": "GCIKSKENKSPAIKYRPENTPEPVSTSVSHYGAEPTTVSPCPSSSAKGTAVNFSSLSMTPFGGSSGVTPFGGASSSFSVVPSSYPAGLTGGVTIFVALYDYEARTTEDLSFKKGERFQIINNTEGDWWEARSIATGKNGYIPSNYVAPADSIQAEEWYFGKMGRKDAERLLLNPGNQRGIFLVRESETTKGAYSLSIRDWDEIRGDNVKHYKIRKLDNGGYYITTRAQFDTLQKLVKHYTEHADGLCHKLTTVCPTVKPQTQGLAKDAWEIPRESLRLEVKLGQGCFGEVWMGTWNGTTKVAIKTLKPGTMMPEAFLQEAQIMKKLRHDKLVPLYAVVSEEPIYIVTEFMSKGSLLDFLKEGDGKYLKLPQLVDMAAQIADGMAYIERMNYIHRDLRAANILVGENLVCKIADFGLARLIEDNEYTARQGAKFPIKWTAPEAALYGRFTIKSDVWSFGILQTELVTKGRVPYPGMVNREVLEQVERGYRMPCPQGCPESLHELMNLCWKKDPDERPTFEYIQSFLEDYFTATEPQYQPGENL", "experiment": "Selectivity interaction (ProQinase) EUB0000171b YES1"}, "[3]": {"target": "Glutamate receptor ionotropic, NMDA 1 (Homo sapiens) (UniProt Q05586)", "experiment": "Selectivity interaction (Panel of kinases, GPCRs, ion channels and transporters (enzymatic assay)) EUB0000266bCl GRIN1"}, "[4]": {"target": "Bromodomain-containing protein 8 (Homo sapiens) (UniProt Q9H0E9)", "experiment": "Selectivity interaction (Human bromodomain panel (DSF assay)) EUB0000233b BRD8"}, "[5]": {"target": "Serine/threonine-protein kinase PLK1 (Homo sapiens, UniProt P53350)", "experiment": "Selectivity interaction (KinomeScan (DiscoverX)) EUB0000666a PLK1", "settings": "at 10 µM"}, "[6]": {"target": "Rho-associated protein kinase 2 (Homo sapiens, UniProt O75116)", "experiment": "Selectivity interaction (KinomeScan (DiscoverX)) EUB0000666a ROCK2", "settings": "at 10 µM"}, "[7]": {"target": "T2, Mitogen-activated protein kinase 15 (Homo sapiens) (UniProt Q8TD08)", "T2 sequence (whole entry)": "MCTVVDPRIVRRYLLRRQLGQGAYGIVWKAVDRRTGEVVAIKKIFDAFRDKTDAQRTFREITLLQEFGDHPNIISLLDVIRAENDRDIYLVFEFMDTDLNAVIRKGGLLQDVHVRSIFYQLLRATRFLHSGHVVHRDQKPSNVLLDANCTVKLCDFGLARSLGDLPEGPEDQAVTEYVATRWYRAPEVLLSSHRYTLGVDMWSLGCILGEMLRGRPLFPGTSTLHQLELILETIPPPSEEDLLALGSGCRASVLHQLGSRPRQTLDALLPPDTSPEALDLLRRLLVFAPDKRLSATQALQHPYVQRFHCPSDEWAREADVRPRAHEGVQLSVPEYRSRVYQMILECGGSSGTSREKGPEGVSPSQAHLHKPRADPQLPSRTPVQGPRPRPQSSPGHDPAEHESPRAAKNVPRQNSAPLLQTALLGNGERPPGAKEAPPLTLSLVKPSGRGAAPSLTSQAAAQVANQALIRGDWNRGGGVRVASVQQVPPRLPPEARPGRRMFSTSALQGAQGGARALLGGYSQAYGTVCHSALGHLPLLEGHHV", "settings": "at 10 µM"}, "[8]": {"target": "Serine/threonine-protein kinase OSR1 (Homo sapiens) (UniProt O95747)", "experiment": "Selectivity interaction (LanthaScreen Eu Kinase Binding Assay) EUB0001632a OXSR1", "settings": "at 10 µM"}, "[9]": {"target": "PAS domain-containing serine/threonine-protein kinase (Homo sapiens) (UniProt Q96RG2)", "sequence (Q96RG2 whole entry, the tested form may be a part)": "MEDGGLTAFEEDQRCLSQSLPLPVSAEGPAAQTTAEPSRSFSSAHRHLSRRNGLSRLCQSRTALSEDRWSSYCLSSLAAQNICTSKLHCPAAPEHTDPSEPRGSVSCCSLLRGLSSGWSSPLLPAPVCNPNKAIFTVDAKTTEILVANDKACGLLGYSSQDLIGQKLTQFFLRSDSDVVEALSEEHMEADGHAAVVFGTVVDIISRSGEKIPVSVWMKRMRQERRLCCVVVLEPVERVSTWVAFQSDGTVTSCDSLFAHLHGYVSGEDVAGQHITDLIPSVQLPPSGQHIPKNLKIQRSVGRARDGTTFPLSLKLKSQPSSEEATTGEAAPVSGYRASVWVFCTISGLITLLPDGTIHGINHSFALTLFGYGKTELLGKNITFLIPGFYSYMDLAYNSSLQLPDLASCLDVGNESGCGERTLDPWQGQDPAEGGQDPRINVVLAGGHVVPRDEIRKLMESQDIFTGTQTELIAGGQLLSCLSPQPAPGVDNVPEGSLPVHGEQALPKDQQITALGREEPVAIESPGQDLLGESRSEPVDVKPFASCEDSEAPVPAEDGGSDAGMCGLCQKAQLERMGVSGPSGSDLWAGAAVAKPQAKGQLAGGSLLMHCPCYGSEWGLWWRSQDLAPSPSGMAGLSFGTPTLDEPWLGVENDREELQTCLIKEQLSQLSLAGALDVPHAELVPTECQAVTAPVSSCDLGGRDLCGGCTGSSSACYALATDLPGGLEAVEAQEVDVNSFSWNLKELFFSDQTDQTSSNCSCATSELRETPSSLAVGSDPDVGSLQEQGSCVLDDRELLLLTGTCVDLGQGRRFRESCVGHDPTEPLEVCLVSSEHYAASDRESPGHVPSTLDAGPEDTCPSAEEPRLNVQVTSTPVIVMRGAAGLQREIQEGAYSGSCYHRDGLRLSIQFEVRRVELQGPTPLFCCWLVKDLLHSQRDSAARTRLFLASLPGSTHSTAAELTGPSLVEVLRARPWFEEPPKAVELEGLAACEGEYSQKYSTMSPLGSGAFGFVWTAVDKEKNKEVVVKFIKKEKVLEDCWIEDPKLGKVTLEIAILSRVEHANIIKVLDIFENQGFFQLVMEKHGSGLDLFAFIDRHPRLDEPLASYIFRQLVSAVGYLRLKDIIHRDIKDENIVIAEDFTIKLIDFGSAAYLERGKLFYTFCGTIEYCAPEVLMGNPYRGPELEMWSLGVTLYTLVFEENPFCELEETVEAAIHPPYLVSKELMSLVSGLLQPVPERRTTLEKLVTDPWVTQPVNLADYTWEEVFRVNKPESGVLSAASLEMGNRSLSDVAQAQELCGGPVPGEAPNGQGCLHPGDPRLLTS", "experiment": "Selectivity interaction (Kinase panel (Invitrogen)) EUB0000639a PASK", "settings": "at 200 nM"}, "[10]": {"target": "Ribosomal protein S6 kinase alpha-4 (Homo sapiens) (UniProt O75676)", "sequence (O75676 whole entry, looked up)": "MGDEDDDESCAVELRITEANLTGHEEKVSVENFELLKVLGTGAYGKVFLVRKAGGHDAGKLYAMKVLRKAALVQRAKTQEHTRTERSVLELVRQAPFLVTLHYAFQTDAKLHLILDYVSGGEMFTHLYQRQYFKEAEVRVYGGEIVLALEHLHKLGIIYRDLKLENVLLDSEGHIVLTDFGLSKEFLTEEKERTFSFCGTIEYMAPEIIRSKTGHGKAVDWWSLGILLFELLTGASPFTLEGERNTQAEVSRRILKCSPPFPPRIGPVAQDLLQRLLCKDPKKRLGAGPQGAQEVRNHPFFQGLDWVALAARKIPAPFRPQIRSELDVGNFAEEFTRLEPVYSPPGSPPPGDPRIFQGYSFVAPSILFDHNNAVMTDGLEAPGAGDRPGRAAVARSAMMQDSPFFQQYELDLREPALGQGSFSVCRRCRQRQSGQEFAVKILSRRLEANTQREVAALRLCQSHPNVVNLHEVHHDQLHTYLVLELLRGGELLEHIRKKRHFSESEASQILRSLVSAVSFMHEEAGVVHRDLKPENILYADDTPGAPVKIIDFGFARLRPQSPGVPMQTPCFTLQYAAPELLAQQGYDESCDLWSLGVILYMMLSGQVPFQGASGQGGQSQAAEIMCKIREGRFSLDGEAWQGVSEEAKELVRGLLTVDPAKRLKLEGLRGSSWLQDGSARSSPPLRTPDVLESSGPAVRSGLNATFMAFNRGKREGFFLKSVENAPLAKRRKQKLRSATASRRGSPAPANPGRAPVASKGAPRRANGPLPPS", "experiment": "Selectivity interaction (KinomeScan (DiscoverX)) EUB0000607a RPS6KA4", "settings": "at 10 µM"}, "[11]": {"target": "T3, Homeodomain-interacting protein kinase 4 (Homo sapiens) (UniProt Q8NE63)", "T3 sequence (whole entry)": "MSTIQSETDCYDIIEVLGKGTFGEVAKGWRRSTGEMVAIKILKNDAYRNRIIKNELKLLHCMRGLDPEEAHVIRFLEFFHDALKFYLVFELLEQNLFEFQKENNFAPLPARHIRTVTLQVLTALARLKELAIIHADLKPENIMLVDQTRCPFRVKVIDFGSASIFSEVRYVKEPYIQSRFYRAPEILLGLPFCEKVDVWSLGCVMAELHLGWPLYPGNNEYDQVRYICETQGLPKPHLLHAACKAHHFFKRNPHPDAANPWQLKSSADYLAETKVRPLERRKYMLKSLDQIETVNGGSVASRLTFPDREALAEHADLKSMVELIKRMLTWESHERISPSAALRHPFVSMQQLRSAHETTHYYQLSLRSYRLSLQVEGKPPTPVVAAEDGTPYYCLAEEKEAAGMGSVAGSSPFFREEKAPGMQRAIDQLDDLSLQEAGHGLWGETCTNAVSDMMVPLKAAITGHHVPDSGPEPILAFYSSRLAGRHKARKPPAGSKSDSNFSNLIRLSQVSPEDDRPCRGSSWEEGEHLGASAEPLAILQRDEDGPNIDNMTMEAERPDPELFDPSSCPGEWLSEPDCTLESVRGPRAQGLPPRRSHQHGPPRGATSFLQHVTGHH", "experiment": "Selectivity interaction (KinomeScan (DiscoverX)) EUB0000607a HIPK4", "settings": "at 10 µM"}, "[12]": {"target": "Non-receptor tyrosine-protein kinase TYK2 (Homo sapiens, UniProt P29597)", "sequence (P29597 whole entry)": "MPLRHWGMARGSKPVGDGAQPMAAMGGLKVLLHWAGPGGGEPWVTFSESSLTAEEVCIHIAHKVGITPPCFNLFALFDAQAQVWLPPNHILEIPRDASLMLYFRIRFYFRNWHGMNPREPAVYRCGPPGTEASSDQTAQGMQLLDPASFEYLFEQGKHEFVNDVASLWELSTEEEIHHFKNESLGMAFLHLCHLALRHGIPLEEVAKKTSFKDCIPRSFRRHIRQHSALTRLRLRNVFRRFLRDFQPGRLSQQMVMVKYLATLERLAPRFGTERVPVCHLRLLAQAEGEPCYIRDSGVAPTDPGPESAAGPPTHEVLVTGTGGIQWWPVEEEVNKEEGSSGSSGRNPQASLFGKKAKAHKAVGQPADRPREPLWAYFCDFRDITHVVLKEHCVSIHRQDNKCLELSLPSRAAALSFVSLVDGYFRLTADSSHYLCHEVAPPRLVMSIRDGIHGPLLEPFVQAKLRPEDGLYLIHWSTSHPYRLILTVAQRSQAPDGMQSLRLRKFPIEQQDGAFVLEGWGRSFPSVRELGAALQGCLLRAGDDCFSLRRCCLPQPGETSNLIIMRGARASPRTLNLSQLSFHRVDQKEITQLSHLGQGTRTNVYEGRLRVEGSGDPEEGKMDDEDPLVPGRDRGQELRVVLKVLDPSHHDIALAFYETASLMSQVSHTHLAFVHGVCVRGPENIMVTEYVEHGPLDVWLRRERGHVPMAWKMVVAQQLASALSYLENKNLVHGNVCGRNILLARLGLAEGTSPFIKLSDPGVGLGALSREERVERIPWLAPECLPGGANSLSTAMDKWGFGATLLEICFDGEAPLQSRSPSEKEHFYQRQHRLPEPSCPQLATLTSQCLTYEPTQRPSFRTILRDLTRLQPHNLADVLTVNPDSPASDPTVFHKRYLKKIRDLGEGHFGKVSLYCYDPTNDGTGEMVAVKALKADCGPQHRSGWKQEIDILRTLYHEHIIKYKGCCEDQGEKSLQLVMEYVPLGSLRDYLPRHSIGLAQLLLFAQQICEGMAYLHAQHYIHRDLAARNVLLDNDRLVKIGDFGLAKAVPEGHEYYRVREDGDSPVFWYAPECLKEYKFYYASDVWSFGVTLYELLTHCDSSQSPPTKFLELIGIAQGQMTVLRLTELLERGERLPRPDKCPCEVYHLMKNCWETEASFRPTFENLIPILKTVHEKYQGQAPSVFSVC", "experiment": "Selectivity interaction (KinomeScan (DiscoverX)) EUB0000695a TYK2", "settings": "at 100 nM"}, "[13]": {"target": "Death-associated protein kinase 2 (Homo sapiens) (UniProt Q9UIK4)", "sequence (Q9UIK4 whole entry, looked up)": "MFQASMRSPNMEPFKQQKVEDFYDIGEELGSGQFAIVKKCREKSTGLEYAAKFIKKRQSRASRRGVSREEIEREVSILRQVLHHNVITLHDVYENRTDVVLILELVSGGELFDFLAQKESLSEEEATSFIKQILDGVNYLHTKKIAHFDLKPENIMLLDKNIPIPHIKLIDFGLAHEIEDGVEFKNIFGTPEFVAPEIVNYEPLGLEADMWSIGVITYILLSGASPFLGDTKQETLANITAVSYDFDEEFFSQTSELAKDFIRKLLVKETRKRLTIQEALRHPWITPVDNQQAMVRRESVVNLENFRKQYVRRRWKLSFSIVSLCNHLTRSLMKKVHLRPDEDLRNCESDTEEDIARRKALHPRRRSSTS", "settings": "at 10 µM"}, "[14]": {"target": "NT-3 growth factor receptor (Homo sapiens, UniProt Q16288)", "experiment": "Selectivity interaction (Ambit KINOMEscan and KiNATiv profiling in Jurkat cells) EUB0000090b NTRK3", "format": "cell-based", "settings": "at 1 µM"}, "[15]": {"target": "Tyrosine-protein kinase HCK (Homo sapiens) (UniProt P08631)", "sequence (P08631 2-526 limits assumed)": "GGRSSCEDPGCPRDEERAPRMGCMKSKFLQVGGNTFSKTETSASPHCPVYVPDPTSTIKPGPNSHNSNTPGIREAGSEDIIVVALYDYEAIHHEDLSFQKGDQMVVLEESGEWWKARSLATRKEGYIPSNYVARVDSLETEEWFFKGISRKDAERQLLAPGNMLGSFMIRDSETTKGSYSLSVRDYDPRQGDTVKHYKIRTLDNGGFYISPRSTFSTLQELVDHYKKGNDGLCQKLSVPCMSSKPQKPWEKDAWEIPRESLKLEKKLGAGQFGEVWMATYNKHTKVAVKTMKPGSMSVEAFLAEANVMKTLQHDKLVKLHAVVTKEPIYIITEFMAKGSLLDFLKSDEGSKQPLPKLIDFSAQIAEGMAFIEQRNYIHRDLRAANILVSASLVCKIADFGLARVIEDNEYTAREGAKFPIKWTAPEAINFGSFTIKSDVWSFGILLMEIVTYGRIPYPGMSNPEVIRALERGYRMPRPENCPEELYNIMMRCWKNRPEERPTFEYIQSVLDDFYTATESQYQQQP", "experiment": "Selectivity interaction (KinomeScan (DiscoverX)) EUB0001619a HCK", "settings": "at 1 µM"}, "[16]": {"target": "Ribosomal protein S6 kinase alpha-1 (Homo sapiens, UniProt Q15418)", "experiment": "Selectivity interaction (ActivX KiNativ screen (ex vivo kinase selectivity in human PBMCs)) EUB0001619a RPS6KA1", "format": "cell-based", "settings": "PBMC, at 1 µM"}},
  "data": [
    {"smiles": "COc1cc(N(C)c2ccnc3ccc(C(F)(F)F)cc23)cc(OC)c1OC", "values": [
      {"measurement": "% binding", "setting": "[1]", "value": 81, "unit": "%"}
    ]},
    {"smiles": "C=CC(=O)Nc1cccc(C(=O)Nc2ccc(Nc3cc(-c4[nH]c(SC)nc4C)ccn3)cc2)c1", "values": [
      {"measurement": "% of control", "setting": "[2]; at 1 µM", "value": 89, "unit": "%"},
      {"measurement": "% of control", "setting": "[2]; at 5 µM", "value": 75, "unit": "%"}
    ]},
    {"smiles": "CCn1c(-c2nc3cc(C(=O)N4CCCC(N)C4)ccc3n2C)cc2ccccc21", "note": "(configuration not stated)", "values": [
      {"measurement": "pXC50", "setting": "[3]", "value": "< 4.3", "unit": "M"}
    ]},
    {"smiles": "CN(C)CCCOc1ccc(-c2cc(NCCCn3cccn3)nc(S(C)(=O)=O)n2)cc1", "values": [
      {"measurement": "dTM", "setting": "[4]", "value": "< 2", "unit": "K"}
    ]},
    {"smiles": "O=C(NOC[C@H](O)CO)c1ccc(F)c(F)c1Nc1ccc(I)cc1F", "values": [
      {"measurement": "% of control", "setting": "[5]", "value": 72, "unit": "%"},
      {"measurement": "% of control", "setting": "[6]", "value": 100, "unit": "%"}
    ]},
    {"smiles": "Cc1cc([C@@H](C)Nc2ccccc2C(=O)O)c2nc(N3CCOCC3)cc(=O)n2c1", "note": "[AZD-6482]", "values": [
      {"measurement": "% of control", "setting": "[7]", "value": 100, "unit": "%"}
    ]},
    {"smiles": "Cn1cc(-n2cnc3c(NCc4nc5cc(Cl)c(Cl)cc5[nH]4)nc(N4CCOCC4)nc32)cn1", "values": [
      {"measurement": "% of inhibition", "setting": "[8]", "value": -23, "unit": "%"}
    ]},
    {"smiles": "CC[C@@H]1[C@H](F)C(=O)N[C@@H]1COc1nccc2cc(C(N)=O)c(OC)cc12", "note": "[ZIMLOVISERTIB]", "values": [
      {"measurement": "% of inhibition", "setting": "[9]", "value": 7.59, "unit": "%"}
    ]},
    {"smiles": "CNC(=O)Nc1ccc(-c2nc(N3CC4CCC(C3)O4)c3cnn(C4CCC5(CC4)OCCO5)c3n2)cc1", "values": [
      {"measurement": "% of control", "setting": "[10]", "value": 100, "unit": "%"},
      {"measurement": "% of control", "setting": "[11]", "value": 100, "unit": "%"}
    ]},
    {"smiles": "Cc1cc(F)c(C(=O)Nc2cccc(-c3nncn3C(C)C)n2)cc1-n1cnc(C2CC2)c1", "values": [
      {"measurement": "% of control", "setting": "[12]", "value": 73, "unit": "%"}
    ]},
    {"smiles": "COCC(=O)NC/C=C/c1ccc2ncnc(Nc3ccc(Oc4ccc(C)nc4)c(C)c3)c2c1", "note": "[CP-724714]", "values": [
      {"measurement": "% of control", "setting": "[13]", "value": 89, "unit": "%"}
    ]},
    {"smiles": "CN(C)C/C=C/C(=O)Nc1ccc(C(=O)N2CCCC(Nc3ncc(Cl)c(-c4c[nH]c5ccccc45)n3)C2)cc1", "note": "(configuration not stated)", "values": [
      {"measurement": "% of control", "setting": "[14]", "value": 81, "unit": "%"}
    ]},
    {"smiles": "N#Cc1cccc(-c2c[nH]c3ncnc(N4CCOCC4)c23)c1", "values": [
      {"measurement": "% of control", "setting": "[15]", "value": 100, "unit": "%"},
      {"measurement": "% of inhibition", "setting": "[16]", "value": 33, "unit": "%"}
    ]}
  ]
}
